Data from patent publication US20160346255A1, “METHODS, AGENTS AND COMPOSITIONS FOR TREATMENT OF INFLAMMATORY CONDITIONS” (Betanien Hospital, priority 2014, published 2016).
Non-standard residues stand in square brackets, D forms with d. Residues, ends and D or L forms follow the SMILES beside them. *: point of attachment. dPhe(4-NHCONH2) = NC(=O)Nc1ccc(C[C@@H](N)C(=O)O)cc1; Dihydroorotyl(S) = O=C1C[C@@H](C(=O)*)NC(=O)N1; dPhe(4-Cl) = N[C@H](Cc1ccc(Cl)cc1)C(=O)O; Phe(4-NH2) = Nc1ccc(C[C@H](N)C(=O)O)cc1; d2Nal = N[C@H](Cc1ccc2ccccc2c1)C(=O)O; Lys(iPr) = CC(C)NCCCC[C@H](N)C(=O)O; d3Pal = N[C@H](Cc1cccnc1)C(=O)O

Columns and labels:
Type in all cases: in vivo, human
[1] = tested on: Patient with Spondyloarthritis; test: Spondyloarthritis patient treated with degarelix; conditions: for BASDAI: baseline 3.8
Protocol: • person, diagnosed with spondyloarthritis • Fulfilled the ASAS criteria for axial radiographic spondyloarthritis. • October 2014 received first dose of degarelix, 240 mg s.c. • Received degarelix 80 mg s.c. every two weeks thereafter. Disease activity in ankylosing spondylitis/spondyloarthritis is measured by the BASDAI (Bath Ankylosing Spondylitis Disease Activity Index (1)), has been extensively validated in clinical trials (2-3), and is one of the most commonly used outcome measures in clinical trials. This is a composite index that evaluates fatigue, axial and peripheral pain, stiffness and enthesopathy. Their BASDAI was at 3.8 at baseline. In October 2014 they received their first dose of degarelix 240 mg s.c. By 2 weeks, their BASDAI had reduced to 2.9, and by 8 weeks it had reduced to 1.3, remission. At 4 months, their BASDAI continues to be low at 1.5. • Response to therapy in clinical practice is defined as improvement of 2 units or 50% on a 0-10 scale of the BASDAI, and expert opinion that the treatment should be continued. Their reduction by 4 months was 2.3. We shall continue treatment.

[2] = Peripheral GnRH levels by ELISA in patients on degarelix; conditions: 3 months
Protocol: (§1) We analysed peripheral GnRH levels in patients with various autoimmune diseases using ELISA. […] Due to the nature of ELISA assays, the concentration in pg/mL should not necessarily be regarded as absolute, and may be interpreted as relative. RA Patient A Baseline GnRH 394 pg/mL, after 3 months of degarelix with loading dose 240 mg, and maintenance doses 80 mg every 2 weeks, GnRH 359 pg/mL. […] During that month/6 weeks […] general function had improved, for example MSIS-29 had reduced from 121 to 110. […] During that period their PASI score reduced by more than 20%. Healthy control 1 baseline GnRH 162 pg/mL, healthy control 2 baseline GnRH 120 pg/mL, healthy control 3 baseline GnRH 153 pg/mL.

peripheral GnRH = test: as above
Protocol: as §1

[3] = tested on: Patients with Rheumatoid Arthritis; test: Rheumatoid arthritis patients treated with degarelix: laboratory variables; parameters: LH: unit not given beside the values
Source text: [table] […] Examples of Patients with Continued RA Improvement Over Several Weeks Despite Stably Low Levels of LH

Patient with Psoriasis = test: Psoriasis patient treated with degarelix
Protocol: The PASI score is a standardized score for assessing disease activity in psoriasis.
He therefore received testosterone supplementation in the form of Testogel containing 50 mg of testosterone, first daily; thereafter every 3 days to maintain testosterone levels within the normal range.
One trial examined 15 patients with psoriasis who were taking lithium.

[4] = tested on: Patient with Rheumatoid Arthritis; test: Rheumatoid arthritis patient treated with degarelix 40 mg weekly; conditions: 240 mg loading
Protocol: • person with seropositive rheumatoid arthritis with disease duration of 22 years. • Fulfilled ACR 2010 classification criteria for rheumatoid arthritis.
• Had tried most therapies available (for example: Humira, Remicade, Enbrel, Actemra, several disease modifying anti-rheumatic drugs), previously without effect or intolerable side effects. • Offered experimental GnRH antagonist therapy, degarelix 40 mg every week with 240 mg loading dose at baseline.

Compound: CC(=O)N[C@H](Cc1ccc2ccccc2c1)C(=O)N[C@H](Cc1ccc(Cl)cc1)C(=O)N[C@H](Cc1cccnc1)C(=O)N[C@@H](CO)C(=O)N[C@@H](Cc1ccc(NC(=O)[C@@H]2CC(=O)NC(=O)N2)cc1)C(=O)N[C@H](Cc1ccc(NC(N)=O)cc1)C(=O)N[C@@H](CC(C)C)C(=O)N[C@@H](CCCCNC(C)C)C(=O)N1CCC[C@H]1C(=O)N[C@H](C)C(N)=O [degarelix] (Ac-[d2Nal][dPhe(4-Cl)][d3Pal]S[Phe(4-NH2)](Dihydroorotyl(S))[dPhe(4-NHCONH2)]L[Lys(iPr)]P[dA]-NH2)
- BASDAI ([1]; at 4 months): 1.5
- BASDAI ([1]; by 2 weeks): 2.9
- BASDAI reduction ([1]; by 4 months): 2.3
- BASDAI ([1]; by 8 weeks, remission): 1.3
- PASI score reduction ([2]; Psoriasis Patient C): more than 20%
- CRP ([2]; RA Patient A, from 142 mg/L): 54 mg/L
- DAS score ([2]; RA Patient A, from 8.6): 4.2
- Peripheral GnRH (ELISA) (peripheral GnRH; Multiple Sclerosis Patient B, after 1 month, baseline 318): 210 pg/mL
- Peripheral GnRH (ELISA) (peripheral GnRH; Psoriasis Patient C, after 3 months, baseline 300): 274 pg/mL
- Peripheral GnRH (ELISA) (peripheral GnRH; RA Patient A, after 3 months, baseline 394): 359 pg/mL
- HbA1c (4.3-6.1), final ([3]; Patient 1, by 24 wks, baseline 6.4, * normalized): 6.4, 6.1*
- Rheumatoid factor (<14), final ([3]; Patient 1, by 24 wks, baseline 7): 7, 9
- LH, final ([3]; Patient 1, by 24 wks, baseline 22): 22, <0.
- FSH, final ([3]; Patient 1, by 24 wks, baseline 38): 38, 1
- ESR (erythrocyte sedimentation rate), final ([3]; Patient 1, by 24 wks, baseline 46, * normalized): 46, 24 *
- CRP (<5), final ([3]; Patient 1, by 24 wks, baseline 63): 63, 16
- Blood Pressure, final ([3]; Patient 1, by 24 wks, baseline 151/90, * normalized): 151/90, 120/71 *
- CCP antibody (<10), final ([3]; Patient 1, by 24 wks, baseline NEG): NEG, NEG
- HbA1c (4.3-6.1), final ([3]; Patient 2, by 15 wks, baseline 5.3): 5.3, 5.3
- LH, final ([3]; Patient 2, by 15 wks, baseline 36): 36, <0.3
- CRP (<5), final ([3]; Patient 2, by 15 wks, baseline 44): 44, 23
- Rheumatoid factor (<14), final ([3]; Patient 2, by 15 wks, baseline 51): 51, 38
- ESR (erythrocyte sedimentation rate), final ([3]; Patient 2, by 15 wks, baseline 51, * normalized): 51, 16*
- FSH, final ([3]; Patient 2, by 15 wks, baseline 72): 72, 0.4
- CCP antibody (<10), final ([3]; Patient 2, by 15 wks, baseline 101): 101, 70
- Blood Pressure, final ([3]; Patient 2, by 15 wks, baseline 118/82): 118/82, 126/80
- LH ([3]; Patient 3, 4 wks, baseline 2): <0.3
- ESR ([3]; Patient 3, 4 wks, baseline 46): 41
- LH ([3]; Patient 3, 8 wks, baseline 2): <0.3
- ESR ([3]; Patient 3, 8 wks, baseline 46): 36
- LH ([3]; Patient 3, 12 wks, baseline 2): <0.3
- ESR ([3]; Patient 3, 12 wks, baseline 46): 20
- LH, final ([3]; Patient 3, by 12 wks, baseline 2): 2, >0.3
- HbA1c (4.3-6.1), final ([3]; Patient 3, by 12 wks, baseline 5.1): 5.1, 5.4
- FSH, final ([3]; Patient 3, by 12 wks, baseline 6): 6, 1
- CRP (<5), final ([3]; Patient 3, by 12 wks, baseline 33): 33, 19
- ESR (erythrocyte sedimentation rate), final ([3]; Patient 3, by 12 wks, baseline 46, * normalized): 46, 20 *
- CCP antibody (<10), final ([3]; Patient 3, by 12 wks, baseline 102): 102, 101
- Blood Pressure, final ([3]; Patient 3, by 12 wks, baseline 110/68): 110/68; 110/66
- Rheumatoid factor (<14), final ([3]; Patient 3, by 12 wks, baseline 178): 178, 163
- LH ([3]; Patient 4, 3½ wks, baseline 8): <0.3
- ESR ([3]; Patient 4, 3½ wks, baseline 78): 68
- LH ([3]; Patient 4, 9 wks, baseline 8): <0.3
- ESR ([3]; Patient 4, 9 wks, baseline 78): 36
- HbA1c (4.3-6.1), final ([3]; Patient 4, by 9 wks, baseline 6.9): 6.9, 6.4
- LH, final ([3]; Patient 4, by 9 wks, baseline 8): 8, <0.3
- FSH, final ([3]; Patient 4, by 9 wks, baseline 15, * normalized): 15, 0.7*
- ESR (erythrocyte sedimentation rate), final ([3]; Patient 4, by 9 wks, baseline 78): 78, 36
- Blood Pressure, final ([3]; Patient 4, by 9 wks, baseline 130/80): 130/80; 120/78
- CRP (<5), final ([3]; Patient 4, by 9 wks, baseline 142): 142, 56
- Rheumatoid factor (<14), final ([3]; Patient 4, by 9 wks, baseline >200, above limit): >200, >200
- CCP antibody (<10), final ([3]; Patient 4, by 9 wks, baseline >340, above limit): >340, >340
- HbA1c (4.3-6.1), final ([3]; Patient 5, by 7 wks, baseline 5.1): 5.1, 5.5
- ESR (erythrocyte sedimentation rate), final ([3]; Patient 5, by 7 wks, baseline 28): 28, 8
- LH, final ([3]; Patient 5, by 7 wks, baseline 44): 44, <0.3
- FSH, final ([3]; Patient 5, by 7 wks, baseline 64): 64, <0.1
- Blood Pressure, final ([3]; Patient 5, by 7 wks, baseline 134/79): 134/79; 124/80
- Rheumatoid factor (<14), final ([3]; Patient 5, by 7 wks, baseline 167): 167, >200
- CCP antibody (<10), final ([3]; Patient 5, by 7 wks, baseline 257): 257, 235
- CRP (<5), final ([3]; Patient 5, by 7 wks, baseline <5): <5, 6
- HbA1c (4.3-6.1), final ([3]; Patient 6, by 3 ½ wks, baseline 5.5): 5.5, 5.4
- Rheumatoid factor (<14), final ([3]; Patient 6, by 3 ½ wks, baseline 8): 8, 8
- CRP (<5), final ([3]; Patient 6, by 3 ½ wks, baseline 22, * normalized): 22, <5*
- LH, final ([3]; Patient 6, by 3 ½ wks, baseline 30): 30, <0.3
- ESR (erythrocyte sedimentation rate), final ([3]; Patient 6, by 3 ½ wks, baseline 37, * normalized): 37, 24*
- FSH, final ([3]; Patient 6, by 3 ½ wks, baseline 79): 79, 0.6
- Blood Pressure, final ([3]; Patient 6, by 3 ½ wks, baseline 90/60): 90/60; 100/64
- CCP antibody (<10), final ([3]; Patient 6, by 3 ½ wks, baseline NEG): NEG, NEG
- Testosterone (normal 8-35 nmol/L) (Patient with Psoriasis; after the first week, before 12 nmol/L): < 1 nmol/L
- Improvement in psoriasis (Patient with Psoriasis; at 6 months): stable
- PASI absolute reduction (Patient with Psoriasis; by 8 weeks): 12.3 points
- PASI reduction (Patient with Psoriasis; by 8 weeks): 23%
- PASI score (Patient with Psoriasis; by 8 weeks, baseline 53.6): 41.3
- Testosterone (normal 8-35 nmol/L) (Patient with Psoriasis; week 8, under testosterone substitution (Testogel)): 9 nmol/L
- CRP ([4]; from 87 mg/L): 67 mg/L
- ESR ([4]; from 62 mm): 38 mm
- Disease activity score (DAS) ([4]; at 2 weeks, from 7.3): 6.7
